The term IC50 denotes the concentration at which inhibition is half-maximal.

Assay [1] concerns SHIP1 enzyme. The conditions noted are these: in vitro; cited from earlier work. An excerpt:
(§1) Turnagainolides are a distinctive family of cyclic depsipeptides containing one (E)-3-hydroxy-5-phenylpent-4-enoic acid (Hppa) and four proteinogenic amino acids (Fig. S1). As the first member of this family, compound EGM-556 was discovered from the marine fungus Microascus sp. EGM-556 following the introduction of the histone deacetylase inhibitor suberoylanilide hydroxamic acid to activate a silent biosynthetic gene cluster. However, its stereochemistry was only partially resolved, and no bioactivity was reported ([3]).

The subject of assay [2] is S. aureus biofilm. The assay is described as follows: biofilm inhibition experiment (crystal violet). In kind it is cell-based. To be noted: overnight 37°C, TSB, OD570. The protocol:
S. aureus was cultured overnight in 3 mL of TSB medium. The next morning, the culture was diluted to an OD570 of 0.5 with fresh TSB medium and then further diluted 1,000-fold to achieve a final concentration of 1 × 10^6 CFU/mL. Aliquots of 100 µL of the diluted culture were transferred to individual wells of a 96-well plate. Test compounds were added to the first well of each row at a concentration of 800 µg/mL, followed by twofold serial dilutions across the row. The plate was incubated overnight at 37°C. The medium was subsequently discarded, and the wells were washed three times with PBS (KH2PO4 0.27 g, Na2HPO4 1.42 g, NaCl 8 g, KCl 0.2 g in 1 L deionized water, pH 7.4). Next, 200 µL of methanol was added to each well to fix the biofilm, and the plate was incubated for 15 minutes. The methanol was then removed, and the wells were stained with 0.1% crystal violet for 5 minutes. Excess dye was washed off, and the plate was air-dried. To dissolve the bound stain, 200 µL of glacial acetic acid was added to each well, and the plate was shaken for 20 minutes. The absorbance at OD570 was measured using a microplate reader (Thermo Fisher Scientific, Varioskan LUX).

For assay [3], the system named is S. aureus. To be noted: cited from earlier work.
Excerpt: as §1, with “([3]). Subsequently, turnagainolides A and B were identified from Bacillus sp., ...” for “([3]).”

Assay [4] has as its system Candida albicans. To be noted: cited from earlier work.
Excerpt: as §1, with “([3]). Subsequently, turnagainolides A and B were identified from Bacillus sp., ...” for “([3]).”

The subject of assay [5] is Escherichia coli. The conditions noted are these: cited from earlier work.
Excerpt: as §1, with “([3]). Subsequently, turnagainolides A and B were identified from Bacillus sp., ...” for “([3]).”

For assay [6], the system named is bacteria. On the set-up: method as in doi:10.1016/j.cclet.2016.03.018. To be noted: compared among congeners; cited from earlier work.
For assay [7], the system named is quorum-sensing in Staphylococcus aureus. The conditions noted are these: ref 5 (Igarashi et al.); read-out: quorum-sensing inhibition in Staphylococcus aureus, IC50; cited from earlier work.
Excerpt: as §1, with “([3]). Subsequently, turnagainolides A and B were identified from Bacillus sp., ...” for “([3]).”

Entries after “also recorded” stand apart in the source; their conditions may differ.

In the case of Turnagainolide B [Compound 2], the “activation of SHIP1 enzyme” value in assay [1] is “activates SHIP1; also recorded: activator of the SHIP1 enzyme”. For the same substance, in assay [2], the “anti-biofilm activity at concentrations above 100 µg/mL” value is given as “slightly stronger inhibition; also recorded: weak inhibition”.
Regarding Turnagainolide D [Compound 3], the “anti-biofilm activity at concentrations above 100 µg/mL” value in assay [2] is “slightly stronger inhibition; also recorded: weak inhibition”.
As for turnagainolide C, the “anti-microbial activity against S. aureus” value in assay [3] is reported as “anti-microbial activity”. For the same substance, the “anti-microbial activity against Candida albicans” value in assay [4] is “anti-microbial activity”. For the same substance, the “anti-microbial activity against Escherichia coli” value in assay [5] is “anti-microbial activity”. For the same substance, in assay [6], the antibacterial activity entry was “only congener that exhibits antibacterial activity”.
On to arthroamide [reference compound], for which the half-maximal inhibitory concentration (IC50) in assay [7] was 300 nM.
On to Turnagainolide A [Compound 1], for which, in assay [7], the IC50 is 800 nM. Moreover, the “activation of SHIP1 enzyme” value in assay [1] is “only turnagainolide B activates SHIP1”. For the same substance, the “anti-biofilm activity at 200 µg/mL” value in assay [2] (200 µg/mL) is “no activity”. Moreover, the “anti-biofilm activity at 400 µg/mL” value in assay [2] (400 µg/mL) is reported as “weak inhibitory activity”.

The values are drawn from paper PMC12094020, “Elucidation of novel turnagainolides and their biosynthetic gene cluster in Bacillus subtilis” (Applied and Environmental Microbiology, 2025).
